Test results: patent publication US20030077653A1, “Method for the identification of active site protease inactivators” (The University of Georgia Research Foundation, Inc., priority 2000, published 2003)
Starred links: 1 amine or outer side, 2 acyl side, 3 side chain; linkers in the order of their positions; H or OH if unused. Residues, ends and D or L forms follow the SMILES beside them. *: point of attachment. AFC = O=c1cc(C(F)(F)F)c2ccc(N*)cc2o1; Morpholide = C1CN(*)CCO1; Cbz = O=C(OCc1ccccc1)*; CO = O=C([*:1])[*:2]; CH2F = FC*

Key:
Trypsin = assay: Differential cleavage (selectivity) test; type: biochemical, human; conditions: pH 8.0, Z-R-AFC
Experimental: (§1) In order to perform the assay, the vehicle (for Step VI) or inhibitor (for Step IX) were incubated with the appropriate substrate in the correct assay buffer and allowed to equilibrate. Subsequently, the protease was added, and the assay was allowed to incubate for an appropriate time. The concentrations used in this experiment were as follows: Vehicle was set up at 4×10^−5 M in final assay buffer; Inhibitor was set up at 3×10^−10 M in the final assay buffer. Accordingly, the dosages employed should be the minimal amount of vehicle or inhibitor necessary to induce inhibition. […] Substrates were set up based upon the preferred substrate for cleavage of the particular enzyme.
(§2) Positive controls were set up similarly as described for test controls, except that solvent was added in substitution for the inhibitor or vehicle (in a volume equal to the volume of inhibitor or vehicle addition). All of the inhibitors and vehicles could be dissolved in dimethylsulfoxide (DMSO), and therefore, this was the solvent of choice. Negative controls were set up by adding the inhibitor or vehicle and the preferred substrates in a tube without the protease. All potential non-proteolytic liberation of AFC was therefore controlled for in this tube (a feature which also insured stability of the AFC substrates, since these substrates will freely liberate AFC when unstable).
(§3) All controls were set up in triplicate, and experiments were repeated a minimum of five times.
(§4) Percent inhibition was calculated as: [formula]
(§5) In this preliminary test, we employed the following human-derived enzymes (with indicated mechanistic class): Cathepsin B (cysteine), Cathepsin L (cysteine), Cathepsin H (cysteine), Cathepsin D (aspartic) Trypsin (serine), the purified Taenia solium cysteine protease, and the Taenia solium crude mix. Cathepsin B was prepared in an assay buffer of 10 mM L-cysteine in 0.4 M Citrate buffer, pH 6. 1, using Z-ARR-AFC as the cleavage substrate. Cathepsin L was prepared in an assay buffer of 10 mM L-cysteine in 0.4 M Citrate buffer, pH 5.5, using Z-FR-AFC as the cleavage substrate. Cathepsin H was prepared in an assay buffer of 10 mM L-cysteine in 0.15 M PBS buffer, pH 6.8, using L- R-AFC as the cleavage substrate. Cathepsin D was prepared in an assay buffer of 0.15 M PBS, pH 7.1, using Z-RGFFP-AFC as the cleavage substrate. Trypsin was prepared in an assay buffer of 0.15 M PBS, pH 8.0, supplemented with 100 mM CaCl2 and with Z-R-AFC as the cleavage substrate. Enzyme was incubated so that it was at least 50 times less than the concentration of substrate in order to insure saturating conditions.

Cathepsin H = target: T1, Cathepsin H (Homo sapiens, UniProt P09668); assay: Differential cleavage (selectivity) test; type: biochemical; conditions: pH 6.8, L-R-AFC
T1 sequence (P09668 98-335): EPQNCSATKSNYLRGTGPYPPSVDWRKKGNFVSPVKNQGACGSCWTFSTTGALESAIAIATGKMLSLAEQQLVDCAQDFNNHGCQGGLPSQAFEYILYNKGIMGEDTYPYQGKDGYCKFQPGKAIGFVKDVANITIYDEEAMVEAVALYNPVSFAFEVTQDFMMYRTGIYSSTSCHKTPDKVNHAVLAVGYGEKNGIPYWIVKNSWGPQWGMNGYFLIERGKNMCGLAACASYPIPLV
Experimental: as §1, §2, §3, §4, §5

Cathepsin D = Cathepsin D (Homo sapiens, UniProt P07339); assay: Differential cleavage (selectivity) test; type: biochemical; conditions: pH 7.1, Z-RGFFP-AFC
Cathepsin D, sequence (P07339 65-412): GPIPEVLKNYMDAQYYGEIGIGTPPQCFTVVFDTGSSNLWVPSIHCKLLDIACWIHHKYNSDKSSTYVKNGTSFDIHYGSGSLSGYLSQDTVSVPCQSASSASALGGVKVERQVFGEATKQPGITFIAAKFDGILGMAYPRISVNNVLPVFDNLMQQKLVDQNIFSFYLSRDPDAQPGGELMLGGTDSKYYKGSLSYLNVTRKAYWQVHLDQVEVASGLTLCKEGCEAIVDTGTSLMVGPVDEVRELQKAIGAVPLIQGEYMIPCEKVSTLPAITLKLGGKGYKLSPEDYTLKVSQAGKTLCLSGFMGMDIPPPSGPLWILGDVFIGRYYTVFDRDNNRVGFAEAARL
Experimental: as §1, §2, §3, §4, §5

Cathepsin B = Cathepsin B (Homo sapiens, UniProt P07858); assay: Differential cleavage (selectivity) test; type: biochemical; conditions: pH 6.1, Z-ARR-AFC
Experimental: as §1, §2, §3, §4, §5

[1] = Observation of side effects in treated mice; type: in vivo; conditions: BALB/c mice; for side effects in mice, long-term study: 30 days treatment, 5 months follow-up
Experimental: FIG. 8. […] Each treated mouse was pre-injected intraperitoneally with inhibitor for two days. During treatment phase, each treated mouse received 1.48×10^−2 μg/μl of N2 daily for three weeks and every other day during the last week. Injections were carried out in 150 μl of dimethyl sulfoxide for each mouse. Both treated groups and positive controls were challenged intraperitoneally with 10 Taenia crassiceps cysts in 200 μl 0.15M PBS at the time of initial infection. After one month of infection, both groups were euthanized and cysts removed by washing with sterile 0.15M PBS. A minimum of two attached cysts were scored as multilobed (ML). […] (B) Graphically represents the effect of protease inhibitor treatment of BALB/c mice challenged with Taenia crassiceps cysts over a long-term period. Mice were divided into treated and untreated groups (5 mice/group).Each mouse in the treated group was pre-injected intraperitoneally with inhibitor for two days. Subsequently, all groups were challenged with 10 T. crassiceps cysts in 200 μl of 0.15M PBS. Treatment with inhibitor or placebo (0.15M PBS) was carried out every day for 30 days post-challenge. Cysts were left alone (untreated) for 5 months, and then euthanized. Cysts were then counted by visual inspection. Percent protection is based on the reduction of the total cyst number in comparison to control mice, which never received any treatment.
Mice in all groups survived without noticeable side effects (e.g., coat condition, tail dragging or paresis, etc).
Long-term studies were also conducted to determine over how long a period these inhibitors would maintain a protective effect. In a representative experiment shown here, mice were divided into treated and untreated groups (5 mice/group). Each mouse in the treated group was pre-injected intraperitoneally with inhibitor for two days. Subsequently, all groups were challenged with 10 T. crassiceps cysts in 200 μl 0.1 5M PBS. Treatment with inhibitor or placebo (0. 15M PBS) was carried out every day for 30 days post- challenge. […] Cysts were then counted by visual inspection. […]

SMILES	Percent inhibition of Trypsin (serine) (Trypsin; vehicle 4×10^−5 M)	Percent inhibition of Cathepsin H (cysteine) (Cathepsin H; vehicle 4×10^−5 M)	Percent inhibition of Cathepsin D (aspartic) (Cathepsin D; vehicle 4×10^−5 M)	Percent inhibition of Cathepsin B (cysteine) (Cathepsin B; vehicle 4×10^−5 M)	side effects in mice, long-term study [1]	Percent inhibition of Trypsin (serine) (Trypsin; inhibitor 3×10^−10 M)	Percent inhibition of Cathepsin H (cysteine) (Cathepsin H; inhibitor 3×10^−10 M)	Percent inhibition of Cathepsin D (aspartic) (Cathepsin D; inhibitor 3×10^−10 M)	Percent inhibition of Cathepsin B (cysteine) (Cathepsin B; inhibitor 3×10^−10 M)	side effects / inhibitor toxicity in mice, short-term studies ([1]; one month, visual inspection)
CC(C)C[C@H](NC(=O)N1CCOCC1)C(=O)N[C@@H](Cc1ccc(O)cc1)C(=O)Nc1ccc2c(C(F)(F)F)cc(=O)oc2c1 [Mu-LY-AFC, Mu-Leu-Tyr-AFC] ({Morpholide-CO}-Leu-Tyr-{AFC})	0%	0%	0%	0%						
CC(C)C[C@H](NC(=O)[C@H](CC(C)C)NC(=O)[C@H](CC(C)C)NC(=O)OCc1ccccc1)C(=O)CF [Z-LLL-FMK, Z-Leu-Leu-Leu-fluoromethylketone] (Cbz-Leu-Leu-Leu-CH2F)					no side effects	0%	0%	0%	0%	
CC(C)C[C@H](NC(=O)OCc1ccccc1)C(=O)N[C@@H](CC(C)C)C(=O)N[C@@H](Cc1ccc(O)cc1)C(=O)CF [Z-LLY-FMK, Z-Leu-Leu-Tyr-FMK] (Cbz-Leu-Leu-Tyr-CH2F)					no side effects	0%	0%	0%	0%	no mice showed effects of inhibitor toxicity
